Legend:
[1] = system: phosphorylation of ERK, KRAS G12C in NCI-H358 cells; test: pERK inhibition assay; format: cell-based
In short: (§1)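 Cells in RPMI-1640 with 10% FBS were plated overnight (30,000/well H358, 20,000 AGS, 30,000 SW620) and treated 4 h with compounds at 0.5% DMSO. After formaldehyde fixation and methanol permeabilization, pERK was detected by in-cell ELISA with HRP secondary and TMB (OD450); IC50 from 4-parameter fit.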

[2] = system: phosphorylation of ERK, KRAS G12V in SW620; test: pERK inhibition assay; format: cell-based; conditions: SW620 cells
In short: as §1

[3] = system: phosphorylation of ERK, KRAS G12D in AGS cells; test: pERK inhibition assay; format: cell-based
In short: as §1

KRAS G12C-BRAF complex = KRAS G12C-BRAF complex (Homo sapiens (Human), UniProt P01116+P62937, G12C); test: KRAS-BRAF with CYPA (500 nM) interaction assay (TR-FRET, Example 136); format: biochemical; conditions: KRAS G12C-BRAF disruption
KRAS G12C-BRAF complex, sequence (P01116-2 other isoform, or with tags, fused parts or gaps G12C): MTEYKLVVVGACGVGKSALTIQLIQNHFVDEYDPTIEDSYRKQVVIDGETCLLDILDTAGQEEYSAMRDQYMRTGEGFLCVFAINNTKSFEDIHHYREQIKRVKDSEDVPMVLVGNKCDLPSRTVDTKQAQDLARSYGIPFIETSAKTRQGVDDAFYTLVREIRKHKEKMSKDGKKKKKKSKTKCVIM
KRAS G12C-BRAF complex, sequence (P62937 whole entry): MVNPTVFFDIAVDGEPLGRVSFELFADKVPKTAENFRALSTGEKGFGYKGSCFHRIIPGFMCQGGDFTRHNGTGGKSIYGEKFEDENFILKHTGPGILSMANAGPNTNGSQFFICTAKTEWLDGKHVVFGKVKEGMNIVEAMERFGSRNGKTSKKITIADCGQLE

AGS cells (KRAS G12D) = test: Cell viability assay (Cell Counting Kit-8, 3-day); format: cell-based, human; conditions: 72 hrs incubation
In short: (§2)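 Cells were seeded at 5,000 cells/well (NCI-H358) or 2,000 cells/well (AGS, SW620), incubated overnight, then treated with compounds in 0.5% DMSO final for 72 hrs. CCK-8 was added and OD450 minus OD650 read after 2 hrs; IC50 came from a 4-parameter sigmoidal fit.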

SW620 cells (KRAS G12V) = test: Cell viability assay (Cell Counting Kit-8, 3-day); format: cell-based, human; conditions: SW620, 72 hrs incubation
In short: as §2

[4] = system: NCI-H358 cells (KRAS G12C); test: Cell viability assay (Cell Counting Kit-8, 3-day); format: cell-based, human; conditions: NCI-H358, 72 hrs incubation
In short: as §2

SMILES	IC50 ([1]; Homo sapiens, NCI-H358, 4 h) [nM]	IC50 ([2]; Homo sapiens, SW-620, 4 h) [nM]	IC50 ([3]; Homo sapiens, AGS, 4 h) [nM]	IC50 (KRAS G12C-BRAF complex) [nM]	IC50 (AGS cells (KRAS G12D); Homo sapiens, 72 h) [nM]	IC50 (SW620 cells (KRAS G12V); Homo sapiens, SW-620) [nM]	IC50 ([4]; Homo sapiens, NCI-H358, 72 h) [nM]	IC50 ([1]; 4 hours) [nM]	IC50 ([2]; 4 hours) [nM]	IC50 ([3]; 4 hours) [nM]	IC50 (AGS cells (KRAS G12D)) [nM]	IC50 (SW620 cells (KRAS G12V)) [nM]	IC50 [4] [nM]
CO[C@@H](C)c1ncc(N2CCN(C)CC2)cc1-c1c2c3cc(cc4c3n1CC(F)(F)C4)-c1csc(n1)C[C@H](NC(=O)[C@H]1C[C@@H]1c1cccnc1)C(=O)N1CCC[C@H](N1)C(=O)OCC(C)(C)C2 (atropisomer, axis not shown; (M)) [Example 92]	1.4	1	6	16	8.8	0.7	2.5	–	–	–	–	–	–
CO[C@@H](C)c1ncc(N2CCN3CCCC[C@@H]3C2)cc1-c1c2c3cc(cc4c3n1CCC4)-c1csc(n1)C[C@H](NC(=O)[C@H]1C[C@@H]1c1cncnc1)C(=O)N1CCC[C@H](N1)C(=O)OCC(C)(C)C2 (atropisomer, axis not shown; (M)) [Example 103, (1S,2S)-N-[(7S,13S)-(20M)-20-[5-[(9αR)-1,3,4,6,7,8,9,9a-octahydropyrido[1,2-a]pyrazin-2-yl]-2-[(1S)-1-methoxyethyl]-3-pyridyl]-17,17-dimethyl-8,14-dioxo-15-oxa-4-thia-9,21,30,31-tetrazahexacyclo[23.3.1.1^2,5.1^9,13.0^19,27.0^21,26]hentriaconta-1 (28),2,5 (31),19,25 (29),26-hexaen-7-yl]-2-pyrimidin-5-yl-cyclopropanecarboxamide]	0.7	0.7	2.4	6	5.2	0.4	1.3	–	–	–	–	–	–
CO[C@@H](C)c1ncc(N2CCN3CCOC[C@@H]3C2)cc1-c1c2c3cc(cc4c3n1CCC4)-c1csc(n1)C[C@H](NC(=O)[C@H]1C[C@@H]1c1cccnc1)C(=O)N1CCC[C@H](N1)C(=O)OCC(C)(C)C2 (atropisomer, axis not shown; (M)) [Example 104, (1S,2S)-N-[(7S,13S)-(20M)-20-[5-[(9αS)-3,4,6,7,9,9a-hexahydro-1H-pyrazino[2,1-c][1,4]oxazin-8-yl]-2-[(1S)-1-methoxyethyl]-3-pyridyl]-17,17-dimethyl-8,14-dioxo-15-oxa-4-thia-9,21,30,31-tetrazahexacyclo[23.3.1.1^2,5.1^9,13.0^19,27.0^21,26]hentriaconta-1 (28),2,5 (31),19,25 (29),26-hexaen-7-yl]-2-(3-pyridyl)cyclopropanecarboxamide]	1	0.4	1.6	9.8	3.8	0.2	0.8	–	–	–	–	–	–
CO[C@@H](C)c1ncc(N2CCOCC2)cc1-c1c2c3cc(cc4c3n1CC(F)(F)C4)-c1csc(n1)C[C@H](NC(=O)[C@H]1[C@H](C)[C@@H]1C)C(=O)N1CCC[C@H](N1)C(=O)OCC(C)(C)C2 (atropisomer, axis not shown; (M)) [Example 76, (1r,2S,3R)-N-[(7S,13S)-23,23-difluoro-(20M)-20-[2-[(1S)-1-methoxyethyl]-5-morpholino-3-pyridyl]-17,17-dimethyl-8,14-dioxo-15-oxa-4-thia-9,21,30,31-tetrazahexacyclo[23.3.1.1^2,5.1^9,13.0^19,27.0^21,26]hentriaconta-1 (28),2,5 (31), 19,25 (29),26-hexaen-7-yl]-2,3-dimethyl-cyclopropanecarboxamide]	0.7	0.2	3.9	9.1	4.9	0.3	2.1	–	–	–	–	–	–
CO[C@@H](C)c1ncc(N2CCN(C)CC2)cc1-c1c2c3cc(cc4c3n1CC(F)(F)C4)-c1csc(n1)C[C@H](NC(=O)[C@H]1C[C@@H]1c1cncnc1)C(=O)N1CCC[C@H](N1)C(=O)OCC(C)(C)C2 (atropisomer, axis not shown; (M)) [Example 95]	0.5	0.4	3.4	13.7	8.7	1.3	4	–	–	–	–	–	–
CO[C@@H](C)c1ncc(N2CCN(CC(F)F)CC2)cc1-c1c2c3cc(cc4c3n1CCC4)-c1csc(n1)C[C@H](NC(=O)[C@H]1[C@H](C)[C@@H]1C)C(=O)N1CCC[C@H](N1)C(=O)OCC(C)(C)C2 (atropisomer, axis not shown) [Example 109, (1r,2R,3S)-N-[(7S,13S)-20-[5-[4-(2,2-difluoroethyl)piperazin-1-yl]-2-[(1S)-1-methoxyethyl]-3-pyridyl]-17,17-dimethyl-8,14-dioxo-15-oxa-4-thia-9,21,30,31-tetrazahexacyclo[23.3.1.1^2,5.1^9,13.0^19,27.0^21,26]hentriaconta-1 (28),2,5 (31), 19,25 (29),26-hexaen-7-yl]-2,3-dimethyl-cyclopropanecarboxamide]	0.9	0.3	4.1	6	5.1	0.6	2.8	–	–	–	–	–	–
CO[C@@H](C)c1ncc(N2CCN(C)CC2)cc1-c1c2c3cc(cc4c3n1CCO4)-c1csc(n1)C[C@H](NC(=O)C1(C)CC1C)C(=O)N1CCC[C@H](N1)C(=O)OCC(C)(C)C2 (stereo partly drawn) [Example 55, N-[(7S,13S)-(20M)-20-[2-[(1S)-1-methoxyethyl]-5-(4-methylpiperazin-1-yl)-3-pyridyl]-17,17-dimethyl-8,14-dioxo-15,24-dioxa-4-thia-9,21,30,31-tetrazahexacyclo[23.3.1.1^2,5.1^9,13.0^19,27.0^21,26]hentriaconta-1 (29),2,5 (31), 19,25,27-hexaen-7-yl]-1,2-dimethyl-cyclopropanecarboxamide]	4.9	3.1	18.1	23.6	69.1	5.6	48.3	–	–	–	–	–	–
COC(C)c1ncc(N2CCN(C)CC2)cc1-c1c2c3cc(cc4c3n1CCO4)-c1csc(n1)CC(NC(=O)C1CC1C)C(=O)N1CCCC(N1)C(=O)OCC(C)(C)C2 [Example 17, (1S,2S)-N-[(7S,13S)-(20M)-20-[2-[(1S)-1-methoxyethyl]-5-(4-methylpiperazin-1-yl)-3-pyridyl]-17,17-dimethyl-8,14-dioxo-15,24-dioxa-4-thia-9,21,30,31-tetrazahexacyclo[23.3.1.1^2,5.1^9,13.0^19,27.0^21,26]hentriaconta-1 (28),2,5 (31),19,25 (29),26-hexaen-7-yl]-2-methyl-cyclopropanecarboxamide]	–	–	–	25.4	–	–	–	2.9	1.8	2.7	21.7	1.1	10.3
CO[C@@H](C)c1ncc(N2CCN(C)CC2)cc1-c1c2c3cc(cc4c3n1CCO4)-c1csc(n1)C[C@H](NC(=O)C1(C)CC1(F)F)C(=O)N1CCC[C@H](N1)C(=O)OCC(C)(C)C2 (stereo partly drawn) [Example 54, 2,2-difluoro-N-[(7S,13S)-(20M)-20-[2-[(1S)-1-methoxyethyl]-5-(4-methylpiperazin-1-yl)-3-pyridyl]-17,17-dimethyl-8,14-dioxo-15,24-dioxa-4-thia-9,21,30,31-tetrazahexacyclo[23.3.1.1^2,5.1^9,13.0^19,27.0^21,26]hentriaconta-1 (29),2,5 (31), 19,25,27-hexaen-7-yl]-1-methyl-cyclopropanecarboxamide]	1.3	1	8.8	23.3	36.8	3	12.1	–	–	–	–	–	–
CO[C@@H](C)c1ncc(N2CCOCC2)cc1-c1c2c3cc(cc4c3n1CCO4)-c1csc(n1)C[C@H](NC(=O)[C@H]1C[C@@H]1c1cncnc1)C(=O)N1CCC[C@H](N1)C(=O)OCC(C)(C)C2 (atropisomer, axis not shown; (M)) [Example 88, (1S,2S)-N-[(7S,13S)-(20M)-20-[2-[(1S)-1-methoxyethyl]-5-morpholino-3-pyridyl]-17,17-dimethyl-8,14-dioxo-15,24-dioxa-4-thia-9,21,30,31-tetrazahexacyclo[23.3.1.1^2,5.1^9,13.0^19,27.0^21,26]hentriaconta-1 (28),2,5 (31), 19,25 (29),26-hexaen-7-yl]-2-pyrimidin-5-yl-cyclopropanecarboxamide]	0.3	0.2	1.4	9.7	4	0.4	2	–	–	–	–	–	–

Reference: patent US20240417410A1, “TRICYCLIC COMPOUNDS FOR THE TREATMENT OF CANCER” (Hoffmann-La Roche Inc., priority 2023, published 2024)
